# Reference: patent US20120065199A1, “SUBSTITUTED QUINOLINES FOR USE AS VEGF INHIBITORS” (CLANOTECH AB, priority 2009, published 2012)
# Legend:
# [1] = test system: T241 wt mouse fibrosarcoma tumor cells; assay: Tumor synograft model; assay type: in vivo, C57B1 mice; details: oral administration 25 mg/kg/day for 10 days, subcutaneous T241 tumors in mice, compared with vehicle
# Experimental: FIG. 1 is a plot of the tumor volume (mL) in mice having received subcutaneously implanted T241 wt mouse fibrosarcoma tumor cells, as a function of days of therapy by oral administration at 25 mg/kg/day of the compound of Example 1 of the invention. This is compared to administration of vehicle only.
# Female 6-week-old C57B1 mice were used for tumor studies. […] T241 wt mouse fibrosarcoma tumor cells growing in logarithmic phase were harvested and resuspended in media, and a single cell solution in a volume of 100 μL was implanted subcutaneously at the right flank of each animal. 6 Mice were used in the treated groups and 6 mice were used in the control groups. Systemic treatment by oral administration injections with either 50 μl of vehicle or the inventive compound (the compound of Example 1) (25 mg/kg/day) was begun at day at day 0 (zero). The inventive compound was administrated for 10 days. Visible tumors were present day 5-10 after implantation. Primary tumors were measured with digital calipers on the days indicated. Tumor volumes were calculated according to the formula: Length×width^2×0.52 as reported. […] It takes a significant number of days for the treated animals to reach the same tumor volume as the vehicle treated animals.
# [2] = test system: PAE cells expressing VEGFR2; assay: Chemotaxis assay (modified Boyden chamber), PAE/VEGFR-2 toward VEGF-A; assay type: cell-based, porcine; details: VEGF-A as chemo-attractant, absence of serum; for inhibition at 10 µM: Sus scrofa, PAE, 10 μM compound, read-out: Chemotaxis: VEGFR-2 inhibition of cell migration (%) at 10 μM compound concentration
# Experimental: (§1) Additionally, the effect of the compounds was tested in this capacity of influencing chemotaxis. The test compounds were tested in porcine aorta endothelial (PAE) cells expressing VEGFR2 and VEGFR3 (PAE/VEGFR-2 and PAE/VEGFR-3). The method used is a modified Boyden chamber assay. The migration of the PAE cells expressing VEGFR2 and VEGFR3 receptors toward VEGF-A and VEGF-C respectively used as chemo-attractant was studied through micropore polycarbonate filter and was scored in the absence of serum. The assay was performed in the presence of compounds at 10 μM.
# (§2) In Table 1, data from both the cell shape assay and the chemotaxis assay are shown. Thus, under “Cell Shape: PAE/VEGFR-2 with VEGF antagonist conc. (μM)” and “Cell Shape: PAE/VEGFR-3 with VEGF antagonist conc. (μM)” the concentration of the indicated inventive compound that gave restitution of cell morphology in the cell shape assay is shown. Data under “Chemotaxis: VEGFR-2% inhibition of cell migration” and “Chemotaxis: VEGFR-3% inhibition of cell migration” show the percentage inhibition of PAE cells expressing VEGFR-2 or 3 in the presence of 10 μM of the indicated inventive compound.
# PAE/VEGFR-2 cells = assay: Cell shape assay, PAE/VEGFR-2 cells with VEGF-A; assay type: cell-based, porcine
# Experimental: (§3) One of the used assays comprised a culture of PAE/VEGFR-2 and PAE/VEGFR3 cells. Morphological changes of the cells were recorded microscopically after addition of VEGF-A and VEGF-C respectively, followed by the test compound at a final concentration up to 100 μM. Growth inhibitions of the PAE/VEGFR-2 cells were detected in the presence of the compound of Example 1 according to the invention at 10 μM or lower. Furthermore, the inventive compounds were tested in PAE/VEGFR-3 cells and morphological changes of the cells were recorded microscopically after addition of the VEGF-C, followed by the test compound at a final concentration up to 100 μM. Growth inhibitions of the PAE/VEGFR-3 cells were detected in the presence of several of Examples according to the invention. The compounds were tested at 10, 50 and 100 μM. The effect of the test compounds in Table 1 is expressed as concentration of compound that inhibits the cell morphology induced by VEGF A and VEGF C. No effect means that no morphological changes were seen up to 100 μM compound concentrations.
# as §2
# [3] = test system: PAE cells expressing VEGFR3; assay: Chemotaxis assay (modified Boyden chamber), PAE/VEGFR-3 toward VEGF-C; assay type: cell-based, porcine; details: Sus scrofa, 10 μM compound, VEGF-C as chemo-attractant, absence of serum, read-out: Chemotaxis: VEGFR-3 inhibition of cell migration (%) at 10 μM compound concentration
# Experimental: as §1, §2
# PAE/VEGFR-3 cells = assay: Cell shape assay, PAE/VEGFR-3 cells with VEGF-C; assay type: cell-based, porcine; details: VEGF-C induced cell morphology, tested at 10, 50 and 100 μM, No effect = no morphological changes up to 100 μM; for minimal effective concentration: Sus scrofa, read-out: Cell Shape: PAE/VEGFR-3 with VEGF antagonist conc. (μM) that gives inhibition
# Experimental: as §3, §2
# [4] = VEGF-A induced cell morphology, tested at 10, 50 and 100 μM, No effect = no morphological changes up to 100 μM
Compound,"Tumor volume, effectiveness in the animal model (FIG. 1) [1]",inhibition at 10 µM [2] [%],"minimal effective concentration (PAE/VEGFR-2 cells; Sus scrofa, VEGF-A induced cell morphology, tested at 10, 50 and 100 μM, No effect = no morphological changes up to 100 μM, read-out: Cell Shape: PAE/VEGFR-2 with VEGF antagonist conc. (μM) that gives inhibition) [µM]","Concentration at which growth inhibitions of the PAE/VEGFR-2 cells were detected (PAE/VEGFR-2 cells; after addition of VEGF-A, final concentration up to 100 μM) [µM]",inhibition at 10 µM [3] [%],Cell Shape: PAE/VEGFR-3 with VEGF antagonist conc. (μM) that gives inhibition (PAE/VEGFR-3 cells),Cell Shape: PAE/VEGFR-2 with VEGF antagonist conc. (μM) that gives inhibition (PAE/VEGFR-2 cells; [4]),minimal effective concentration (PAE/VEGFR-3 cells) [µM],Chemotaxis: VEGFR-2 inhibition of cell migration (%) at 10 μM compound concentration [2]
"CNC(=O)c1ccc2ncc(C(=O)OCn3ccnc3)c(Nc3ccc(OC)cc3)c2c1 [Example 1, (1H-imidazol-1-yl)methyl 4-(4-methoxyphenylamino)-6-(methylcarbamoyl)-quinoline-3-carboxylate]",convincing results for its effectiveness,52,10,≤ 10,53,–,–,–,–
"CNC(=O)c1ccc2ncc(C(=O)OCN(C)C(=O)OC)c(Nc3ccc(OC)cc3)c2c1 [Example 2, (Methoxycarbonyl(methyl)amino)methyl 4-(4-methoxyphenylamino)-6-(methylcarbamoyl)quinoline-3-carboxylate]",–,39,–,–,45,No effect,No effect,–,–
"CNC(=O)c1ccc2ncc(C(=O)OCN(C)C(=O)c3ccccc3)c(Nc3ccc(OC)cc3)c2c1 [Example 3, (N-methylbenzamido)methyl 4-(4-methoxyphenylamino)-6-(methylcarbamoyl)-quinoline-3-carboxylate]",–,28,–,–,36,No effect,No effect,–,–
"CNC(=O)c1ccc2ncc(C(=O)OCCN(C)C)c(Nc3ccc(OC)cc3)c2c1 [Example 4, 2-(dimethylamino)ethyl 4-(4-methoxyphenylamino)-6-(methylcarbamoyl)-quinoline-3-carboxylate]",–,21,–,–,63,–,No effect,100,–
"CNC(=O)c1ccc2ncc(C(=O)OCC(=O)N(C)C)c(Nc3ccc(OC)cc3)c2c1 [Example 5, 2-(dimethylamino)-2-oxoethyl-4-(4-methoxyphenylamino)-6-(methyl-carbamoyl)quinoline-3-carboxylate]",–,2,–,–,64,–,No effect,100,–
"CNC(=O)c1ccc2ncc(C(=O)OC(C)C(=O)OC)c(Nc3ccc(OC)cc3)c2c1 (stereo not shown) [Example 6, (2-Methoxy-1-methyl-2-oxo-ethyl) 4-[(4-methoxyphenyl)amino]-6-(methylcarbamoyl)quinoline-3-carboxylate]",–,23,–,–,69,–,No effect,50,–
"CNC(=O)c1ccc2ncc(C(=O)OCOC(C)=O)c(Nc3ccc(OC)cc3)c2c1 [Example 7, Acetoxymethyl 4-[(4-methoxyphenyl)amino]-6-(methylcarbamoyl)quinoline-3-carboxylate]",–,–,–,–,25,–,No effect,50,No effect
"CNC(=O)c1ccc2ncc(C(=O)OCN(c3ccccc3)S(C)(=O)=O)c(Nc3ccc(OC)cc3)c2c1 [Example 8, (Methylsulfonyl(phenyl)amino)methyl 4-[(4-methoxyphenyl)amino]-6-(methylcarbamoyl)quinoline-3-carboxylate]",–,–,–,–,18,–,No effect,100,No effect
"CNC(=O)c1ccc2ncc(C(=O)OC(C)C(=O)O)c(Nc3ccc(OC)cc3)c2c1 (stereo not shown) [Example 9, 2-[4-[(4-Methoxyphenyl)amino]-6-(methylcarbamoyl)quinoline-3-carbonyl]oxypropanoic Acid]",–,38,–,–,52,No effect,No effect,–,–
"CNC(=O)c1ccc2ncc(C(=O)OCCn3ccnc3)c(Nc3ccc(OC)cc3)c2c1 [Example 10, 2-Imidazol-1-ylethyl 4-[(4-methoxyphenyl)amino]-6-(methylcarbamoyl)-quinoline-3-carboxylate]",–,32,–,–,53,–,No effect,10,–
"CNC(=O)c1ccc2ncc(C(=O)OCCN3CCOCC3)c(Nc3ccc(OC)cc3)c2c1 [Example 11, 2-Morpholinoethyl 4-[(4-methoxyphenyl)amino]-6-(methylcarbamoyl)-quinoline-3-carboxylate]",–,10,–,–,83,–,No effect,10,–
"CNC(=O)c1ccc2ncc(C(=O)OCc3oc(=O)oc3C)c(Nc3ccc(OC)cc3)c2c1 [Example 12, (5-Methyl-2-oxo-1,3-dioxol-4-yl)methyl 4-[(4-methoxyphenyl)amino]-6-(methylcarbamoyl)quinoline-3-carboxylate]",–,–,–,–,46,–,No effect,100,No effect
"CNC(=O)c1ccc2ncc(C(=O)OCCn3ccnc3)c(Nc3ccc(F)cc3)c2c1 [Example 13, 4-(4-Fluoro-phenylamino)-6-methylcarbamoyl-quinoline-3-carboxylic acid 2-imidazol-1-yl-ethylester]",–,–,–,–,27,–,No effect,50,No effect
"CNC(=O)c1ccc2ncc(C(=O)OCn3ccnc3)c(Nc3ccc(F)cc3)c2c1 [Example 14, 4-(4-Fluoro-phenylamino)-6-methylcarbamoyl-quinoline-3-carboxylic acid imidazol-1-yl-methylester]",–,–,–,–,30,–,No effect,50,No effect
"CNC(=O)c1ccc2ncc(C(=O)OCCN3CCOCC3)c(Nc3ccc(F)cc3)c2c1 [Example 15, 2-Morpholinoethyl 4-[(4-fluorophenyl)amino]-6-(methylcarbamoyl)quinoline-3-carboxylate]",–,31,–,–,59,–,No effect,100,–
